Test results as given in US11213536B2, “Acylated compounds for the treatment of ocular pathologies” (CONSEJO SUPERIOR DE INVESTIGACIONES CIENTÍFICAS, priority 2016, dated 2022).

System: SH-SY5Y neuroblastoma cell line
Assay: Neuroprotection assay: SH-SY5Y viability (MTT) after H2O2 damage
Type: cell-based
Settings: H2O2 100 μM, RES 10 μM, MTT 24 h
Method: The SH-SY5Y neuroblastoma cell line was cultured in petri dishes pre-treated with collagen (100 μg/ml) with F12 medium supplemented with penicillin/streptomycin and 10% inactivated fetal bovine serum.
Cell viability assays with neurons were prepared in 96-well plates pre-treated with collagen by seeding 20,000 cells/well in a volume of 100 μl and incubating the cells for 24 h before the addition of the compounds. The compounds to be tested were dissolved in DMSO and added in three different concentrations (1, 10 and 100 μM) in order to determine their toxicity. The final percentage of DMSO in each well was adjusted to 1%. The cell viability was evaluated 24 h after the addition of the compounds by means of the MTT assay according to the manufacturer's method. Mean values and standard deviations were calculated from at least 8 different measurements from several independent experiments.
Neuroprotection assays. […] The cell viability was evaluated 24 h after the addition of the compounds by means of the MTT assay according to the manufacturer's method. Mean values and standard deviations were calculated from at least 8 different measurements from several independent experiments. Neuronal recovery was calculated by normalizing the results of the neuronal viability experiments after the addition of our compounds and H2O2 to the positive control of each experiment (neurons+H2O2).

## Oc1ccc(C=Cc2cc(O)cc(O)c2)cc1 [RES, resveratrol, reference compound]
  recovery of cell viability: up to 50%
